Results as given in patent US20100099674A1 (priority 2007, published 2010).

Key:
[1] = tested on: Yersinia strain pIB102EL (YopE gene transcriptionally fused to luxAB); assay type: cell-based, Y. pseudotuberculosis
[2] = tested on: Enterotoxic Escherichia coli (ETEC); assay type: cell-based
[3] = tested on: YopH secretion by Yersinia-strain pIB102; assay type: cell-based, Y. pseudotuberculosis; conditions: reduction of assay read-out (pNPP dephosphorylation, 405 nm) at 50 or 20 μM; Ca2+ depleted medium, 37° C.
[4] = tested on: J774A cells infected with Y. pseudotuberculosis YPIII (pIB102); assay type: cell-based; conditions: survival of the infected J774A cells at 20 or 10 μM; MOI 10, 16 h of infection

Row | Structure (SMILES) | Lux Assay [1] | Ex vivo ETEC (Neg Control) [2] | YopH Assay [3] | Ex vivo Y. pseudotb. [4]
1 | Oc1c(CN2CCN(c3ccccn3)CC2)cc(Cl)c2cccnc12 [Substance 6] | + (key: + = <50% reduction of assay read-out at 50 μM; ++ = <50% reduction of assay read-out at 20 μM) | + (key: + = >70% survival of the infected cells at 50 μM; ++ = >70% survival of the infected cells at 20 μM) | + (+ = <50% reduction of assay read-out at 50 μM) | + (+ = >70% survival of the infected cells at 20 μM)
2 | COc1ccccc1N1CCN(Cc2cc([N+](=O)[O-])c3cccnc3c2O)CC1 [Substance 3] | ++ (key: + = <50% reduction of assay read-out at 50 μM; ++ = <50% reduction of assay read-out at 20 μM) | – | + (+ = <50% reduction of assay read-out at 50 μM) | + (+ = >70% survival of the infected cells at 20 μM)
3 | O=[N+]([O-])c1cc(CN2CCN(c3ccccc3)CC2)c(O)c2ncccc12 [Substance 1] | ++ (key: + = <50% reduction of assay read-out at 50 μM; ++ = <50% reduction of assay read-out at 20 μM) | – | ++ (++ = <50% reduction of assay read-out at 20 μM) | ++ (++ = >70% survival of the infected cells at 10 μM)
4 | O=[N+]([O-])c1cc(CN2CCC(c3ccccc3)C2)c(O)c2ncccc12 (stereo not drawn) [Substance 5] | ++ (key: + = <50% reduction of assay read-out at 50 μM; ++ = <50% reduction of assay read-out at 20 μM) | ++ (key: + = >70% survival of the infected cells at 50 μM; ++ = >70% survival of the infected cells at 20 μM) | ++ (++ = <50% reduction of assay read-out at 20 μM) | + (+ = >70% survival of the infected cells at 20 μM)
5 | Oc1c(CN2CCN(c3ccc(F)cc3)CC2)cc(Br)c2cccnc12 [Substance 7] | + (key: + = <50% reduction of assay read-out at 50 μM; ++ = <50% reduction of assay read-out at 20 μM) | ++ (key: + = >70% survival of the infected cells at 50 μM; ++ = >70% survival of the infected cells at 20 μM) | + (+ = <50% reduction of assay read-out at 50 μM) | ++ (++ = >70% survival of the infected cells at 10 μM)
6 | CN(Cc1cc([N+](=O)[O-])c2cccnc2c1O)C1CCCCC1 [Substance 2] | + (key: + = <50% reduction of assay read-out at 50 μM; ++ = <50% reduction of assay read-out at 20 μM) | – | – | –
7 | Oc1c(CN2CCN(c3ccc(F)cc3)CC2)cc(Cl)c2cccnc12 [Substance 8] | + (key: + = <50% reduction of assay read-out at 50 μM; ++ = <50% reduction of assay read-out at 20 μM) | + (key: + = >70% survival of the infected cells at 50 μM; ++ = >70% survival of the infected cells at 20 μM) | + (+ = <50% reduction of assay read-out at 50 μM) | ++ (++ = >70% survival of the infected cells at 10 μM)
8 | CC1CN(Cc2cc([N+](=O)[O-])c3cccnc3c2O)CC(C)O1 (stereo not drawn) [Substance 4] | + (key: + = <50% reduction of assay read-out at 50 μM; ++ = <50% reduction of assay read-out at 20 μM) | + (key: + = >70% survival of the infected cells at 50 μM; ++ = >70% survival of the infected cells at 20 μM) | + (+ = <50% reduction of assay read-out at 50 μM) | + (+ = >70% survival of the infected cells at 20 μM)
